Bounds are passed on as bounds.

The target in this assay is mTOR/GbL/Raptor (mTORC1) (Homo sapiens, UniProt P42345). The assay is described as follows: mTOR/GbL/Raptor (mTORC1) ELISA assay. The conditions noted are these: phosphorylation of 4E-BP1; 0.2 nM mTORC1, 10 μM ATP; read-out: IC50 in this assay (mTORC1 ELISA). The assay is classed as biochemical. Summed up: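 Human mTORC1 (0.2 nM) phosphorylated 50 nM His-tagged 4E-BP1 with 10 µM ATP in HEPES pH 7.2 containing 10 mM MnCl2, 120 min at ambient temperature. Substrate was captured on Ni-chelate plates; phospho-4E-BP1 was detected by primary antibody and HRP secondary with luminescence.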

With `CNS(=O)(=O)c1cc(-c2ccc3c(c2)CN(c2ncnc4c2CC(C)(C)C=C4)CCO3)cnc1N` [Example 401, 2-amino-5-[4-(6,6-dimethyl-5,6-dihydroquinazolin-4-yl)-2,3,4,5-tetrahydro-1,4-benzoxazepin-7-yl]-N-methylpyridine-3-sulfonamide], the half-inhibitory concentration (IC50) (commonly the concentration needed to halve the response being measured) is no more than 10 nM.

Consider `Cc1nc2ccc(-c3ccc4c(c3)CN(c3ncnc(C)c3Cc3cccc(F)c3)CCO4)cc2[nH]1` [Example 72, 4-{5-[(3-fluorophenyl)methyl]-6-methylpyrimidin-4-yl}-7-(2-methyl-1H-benzimidazol-6-yl)-2,3,4,5-tetrahydro-1,4-benzoxazepine], for which the IC50 is no more than 10 nM.

For the compound `Cc1nc2ncc(-c3ccc4c(c3)CN(c3nc(CN5CC[C@H](F)C5)nc5c3CC(C)(C)CC5)CCO4)cc2[nH]1` [Example 464, 4-(2-{[(3S)-3-fluoropyrrolidin-1-yl]methyl}-6,6-dimethyl-5,6,7,8-tetrahydroquinazolin-4-yl)-7-(2-methyl-1H-imidazo[4,5-b]pyridin-6-yl)-2,3,4,5-tetrahydro-1,4-benzoxazepine], the half-inhibitory concentration (IC50) was 10 to 50 nM.

Turning to `CCc1c(C)ncnc1N1CCOc2ccc(-c3cnc4nc(C)[nH]c4c3)cc2C1` [Example 470, 4-(5-ethyl-6-methylpyrimidin-4-yl)-7-(2-methyl-1H-imidazo[4,5-b]pyridin-6-yl)-2,3,4,5-tetrahydro-1,4-benzoxazepine], the IC50 fell in the range of 50 to 250 nM.

`CC1(C)CCc2ncnc(N3CCOc4ccc(-c5cnc(N)c(S(=O)(=O)NCCCO)c5)cc4C3)c2C1` [Example 375, 2-amino-5-[4-(6,6-dimethyl-5,6,7,8-tetrahydroquinazolin-4-yl)-2,3,4,5-tetrahydro-1,4-benzoxazepin-7-yl]-N-(3-hydroxypropyl)pyridine-3-sulfonamide]: the IC50 was no more than 10 nM.

Regarding `Cc1nc2ncc(-c3ccc4c(c3)CN(c3nc(CN5CC[C@@H](F)C5)nc5c3CC(C)(C)CC5)CCO4)cc2[nH]1` [Example 462], the IC50 fell in the range of 10 to 50 nM.

On to `CC1(C)CCc2ncnc(N3CCOc4ccc(-c5cnc(N)c(S(=O)(=O)N6CCC(O)CC6)c5)cc4C3)c2C1` [Example 317, 1-({2-amino-5-[4-(6,6-dimethyl-5,6,7,8-tetrahydroquinazolin-4-yl)-2,3,4,5-tetrahydro-1,4-benzoxazepin-7-yl]pyridin-3-yl}sulfonyl)piperidin-4-ol], for which the IC50 was 50 to 250 nM.

On to `Cc1nc2cc(-c3ccc4c(c3)CN(c3nc(CN5CCCC5)nc5c3CC(C)(C)CC5)CCO4)ccc2[nH]1` [Example 500, 4-[6,6-dimethyl-2-(pyrrolidin-1-ylmethyl)-5,6,7,8-tetrahydroquinazolin-4-yl]-7-(2-methyl-1H-benzimidazol-5-yl)-2,3,4,5-tetrahydro-1,4-benzoxazepine], for which the IC50 is no more than 10 nM.

`CC1(C)CCc2ncnc(N3CCOc4ccc(-c5cnc(N)c(NS(C)(=O)=O)c5)cc4C3)c2C1` [Example 620, N-{2-amino-5-[4-(6,6-dimethyl-5,6,7,8-tetrahydroquinazolin-4-yl)-2,3,4,5-tetrahydro-1,4-benzoxazepin-7-yl]pyridin-3-yl}methanesulfonamide]: the IC50 was in the range of 50 to 250 nM.

Consider `Cc1nc2cc(-c3ccc4c(c3)CN(c3nc(CO)nc(C)c3Cc3ccc(F)cc3)CCO4)ccc2[nH]1` [Example 310, {5-[(4-fluorophenyl)methyl]-4-methyl-6-[7-(2-methyl-1H-benzimidazol-5-yl)-2,3-dihydro-1,4-benzoxazepin-4(5H)-yl]pyrimidin-2-yl}methanol], for which the IC50 was no more than 10 nM.

For `CC1(C)CCc2ncnc(N3CCOc4ccc(-c5cnc(Cl)c(S(=O)(=O)N6CC[C@H](N)C6)c5)cc4C3)c2C1` [Example 307, (3S)-1-({2-chloro-5-[4-(6,6-dimethyl-5,6,7,8-tetrahydroquinazolin-4-yl)-2,3,4,5-tetrahydro-1,4-benzoxazepin-7-yl]pyridin-3-yl}sulfonyl)pyrrolidin-3-amine], the IC50 was in the range of 250 to 1000 nM.

As for `COc1ccc2c(N3CCOc4ccc(-c5ccc6[nH]c(C)nc6c5)cc4C3)nc(CN(C)C)nc2c1` [Example 659, N,N-dimethyl-1-{4-[7-(2-methyl-1H-benzimidazol-5-yl)-2,3-dihydro-1,4-benzxazepin-4(5H)-yl]-7-(methyloxy)quinazolin-2-yl}methanamine], the IC50 lay within 250 to 1000 nM.

Consider `CC1(C)CCc2ncnc(N3CCOc4ccc(-c5cnc(N)c(S(=O)(=O)NC6CCNCC6)c5)cc4C3)c2C1` [Example 398], for which the IC50 lay in the range of 50 to 250 nM.

As for `CN1CC[C@@H](NS(=O)(=O)c2cc(-c3ccc4c(c3)CN(c3ncnc5c3CC(C)(C)CC5)CCO4)cnc2N)C1` [Example 385, 2-amino-5-[4-(6,6-dimethyl-5,6,7,8-tetrahydroquinazolin-4-yl)-2,3,4,5-tetrahydro-1,4-benzoxazepin-7-yl]-N-[(3R)-1-methylpyrrolidin-3-yl]pyridine-3-sulfonamide], the concentration for half-maximal inhibition (IC50) is 50 to 250 nM.

`Cc1nc2ncc(-c3ccc4c(c3)CN(c3nc(CO)nc5c3CC(C)(C)CC5)CCO4)cc2[nH]1` [Example 312, {6,6-dimethyl-4-[7-(2-methyl-1H-imidazo[4,5-b]pyridin-6-yl)-2,3-dihydro-1,4-benzoxazepin-4(5H)-yl]-5,6,7,8-tetrahydroquinazolin-2-yl}methanol]: the IC50 was no more than 10 nM.

On to `Cc1nc2cc(-c3ccc4c(c3)CN(c3nc(C(C)N(C)C)nc5c3CC(C)(C)CC5)CCO4)cnc2[nH]1` (centres unmarked) [Example 356, 1-{6,6-dimethyl-4-[7-(2-methyl-3H-imidazo[4,5-b]pyridin-6-yl)-2,3-dihydro-1,4-benzoxazepin-4(5H)-yl]-5,6,7,8-tetrahydroquinazolin-2-yl}-N,N-dimethylethanamine], for which the IC50 fell in the range of 50 to 250 nM.

For `COCCNCc1nc2c(c(N3CCOc4ccc(-c5ccc6nc(C)[nH]c6c5)cc4C3)n1)CC(C)(C)CC2` [Example 585, N-({6,6-dimethyl-4-[7-(2-methyl-1H-benzimidazol-6-yl)-2,3-dihydro-1,4-benzoxazepin-4(5H)-yl]-5,6,7,8-tetrahydroquinazolin-2-yl}methyl)-2-(methyloxy)ethanamine], the IC50 was in the range of 10 to 50 nM.

On to `Cc1nc2ccc(-c3ccc4c(c3)CN(c3ccnc5cc(C#N)ccc35)CCO4)cc2[nH]1` [Example 242, 4-[7-(2-methyl-1H-benzimidazol-6-yl)-2,3-dihydro-1,4-benzoxazepin-4(5H)-yl]quinolin-7-carbonitrile], for which the IC50 was no less than 2000 nM.

For the compound `CC1(C)CCc2ncnc(N3CCOc4ccc(-c5ccc6nc(N)[nH]c6c5)cc4C3)c2C1` [Example 236, 6-[4-(6,6-dimethyl-5,6,7,8-tetrahydroquinazolin-4-yl)-2,3,4,5-tetrahydro-1,4-benzoxazepin-7-yl]-1H-benzimidazol-2-amine], the IC50 was no more than 10 nM.

For the compound `CCNc1nc2ccc(-c3ccc4c(c3)CN(c3ncnc(Nc5ccccc5)c3C)CCO4)cc2[nH]1` [Example 287, N-ethyl-6-{4-[5-methyl-6-(phenylamino)pyrimidin-4-yl]-2,3,4,5-tetrahydro-1,4-benzoxazepin-7-yl}-1H-benzimidazol-2-amine], the IC50 was 50 to 250 nM.

Turning to `CC1(C)CCc2ncnc(N3CCOc4ccc(-c5cnc(N)c(S(=O)(=O)NCC(O)C(F)(F)F)c5)cc4C3)c2C1` (centres unmarked) [Example 373, 2-amino-5-[4-(6,6-dimethyl-5,6,7,8-tetrahydroquinazolin-4-yl)-2,3,4,5-tetrahydro-1,4-benzoxazepin-7-yl]-N-(3,3,3-trifluoro-2-hydroxypropyl)pyridine-3-sulfonamide], the IC50 was no more than 10 nM.

In the case of `COc1ccc2c(N3CCOc4ccc(-c5cnc6nc(N)[nH]c6c5)cc4C3)nc(C)nc2c1` [Example 289, 6-{4-[2-methyl-7-(methyloxy)quinazolin-4-yl]-2,3,4,5-tetrahydro-1,4-benzoxazepin-7-yl}-1H-imidazo[4,5-b]pyridin-2-amine], the IC50 was in the range of 10 to 50 nM.

`c1ccc2c(N3CCOc4ccc(-c5cn[nH]c5)cc4C3)ccnc2c1` [Example 137, 7-(1H-pyrazol-4-yl)-4-quinolin-4-yl-2,3,4,5-tetrahydro-1,4-benzoxazepine]: the half-maximal inhibitory concentration (IC50) was 1000 to 2000 nM.

As to `CCc1ncnc(N2CCOc3ccc(-c4ccc5nc(C)[nH]c5c4)cc3C2)c1CC` [Example 58, 4-(5,6-diethylpyrimidin-4-yl)-7-(2-methyl-1H-benzimidazol-6-yl)-2,3,4,5-tetrahydro-1,4-benzoxazepine], the IC50 was in the range of 50 to 250 nM.

For `CCNc1nc2ncc(-c3ccc4c(c3)CN(c3ncnc(C)c3Cc3ccc(F)cc3)CCO4)cc2[nH]1` [Example 250, N-ethyl-6-(4-{5-[(4-fluorophenyl)methyl]-6-methylpyrimidin-4-yl}-2,3,4,5-tetrahydro-1,4-benzoxazepin-7-yl)-1H-imidazo[4,5-b]pyridin-2-amine], the half-inhibitory concentration (IC50) is no more than 10 nM.

Turning to `C=CCc1c(C)nc(CN(C)C)nc1N1CCOc2ccc(-c3ccc4nc(C)[nH]c4c3)cc2C1` [Example 654, N,N-dimethyl-1-{4-methyl-6-[7-(2-methyl-1H-benzimidazol-6-yl)-2,3-dihydro-1,4-benzoxazepin-4(5H)-yl]-5-prop-2-en-1-ylpyrimidin-2-yl}methanamine], the IC50 was in the range of 50 to 250 nM.

Consider `Cc1nc2ccc(-c3ccc4c(c3)CN(c3ccnc5cc(F)ccc35)CCO4)cc2[nH]1` [Example 241, 4-(7-fluoroquinolin-4-yl)-7-(2-methyl-1H-benzimidazol-6-yl)-2,3,4,5-tetrahydro-1,4-benzoxazepine], for which the IC50 was 250 to 1000 nM.

As to `CCNc1nc2ccc(-c3ccc4c(c3)CN(c3ccnc5c(F)cccc35)CCO4)cc2[nH]1` [Example 282, N-ethyl-6-[4-(8-fluoroquinolin-4-yl)-2,3,4,5-tetrahydro-1,4-benzoxazepin-7-yl]-1H-benzimidazol-2-amine], the 50% inhibitory concentration (IC50) is 50 to 250 nM.

Consider `CCc1nc(CN(C)C)nc(N2CCOc3ccc(-c4cnc5[nH]c(C)nc5c4)cc3C2)c1C` [Example 344, 1-{4-ethyl-5-methyl-6-[7-(2-methyl-3H-imidazo[4,5-b]pyridin-6-yl)-2,3-dihydro-1,4-benzoazepin-4(5H)-yl]pyrimnidin-2-yl}-N,N-dimethylmethanamine], for which the IC50 is 250 to 1000 nM.

The record behind these values is US8648066B2 (Exelixis, Inc., priority 2009, dated 2014).
